Legend:
Type in all cases: in vivo
[1] = test system: corn; assay: Test Example 5: effect on crop by foliage application, plastic box (symbol c); conditions: 320 g/ha, 3 weeks after application
In short: (§1)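 Greenhouse culture at 25° C. to 30° C. followed spot-like sowing into sterilized diluvial soil, with seed covered by roughly 1.5 cm of soil.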

[2] = test system: Digitaria ciliaris; assay: Test Example 5: herbicidal effect by foliage application, plastic box (symbol F); conditions: 320 g/ha, 3 weeks after application
In short: (§2)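 Post-emergence spray; diluvial soil (sterilized), ~1.5 cm seed cover; greenhouse 25–30° C; 14-day-old plants; water-diluted emulsion at predetermined dose; visual score at 3 wk post-treatment.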

[3] = test system: directly sowed rice plant; assay: Test Example 3: effect on crop by foliage application, Wagner pot (symbol b); conditions: application herbicide amount 320 g/ha
In short: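 Wagner pot (1/10000 are), alluvial soil, submerged 0.1–0.5 cm; sown E. crus-galli var. crus-galli, L. chinensis, C. difformis, rice; greenhouse 25–30 °C.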

[4] = test system: Lolium multiflorum Lam.; assay: Test Example 4: herbicidal effect by soil treatment (symbol K); conditions: application herbicide amount 320 g/ha
In short: (§3)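 Seeds were sown in sterilized diluvial soil, covered with about 1.5 cm of soil, and the soil surface was sprayed with a water-diluted emulsion of the compound at a predetermined rate. Plants grew in a greenhouse at 25° C. to 30° C.; effects were scored visually 3 weeks after application.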

[5] = test system: rice plant; assay: Test Example 5: effect on crop by foliage application, plastic box (symbol b); conditions: 320 g/ha, 3 weeks after application
In short: as §1

[6] = test system: soybean; assay: Test Example 4: effect on crop by soil treatment (symbol d); conditions: application herbicide amount 320 g/ha
In short: (§4)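 Diluvial soil (sterilized) in boxes; seeds placed spot-wise alongside weed species; ~1.5 cm covering soil. Greenhouse, 25–30° C.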

[7] = test system: Abutilon theophrasti; assay: Test Example 5: herbicidal effect by foliage application, plastic box (symbol M); conditions: 320 g/ha, 3 weeks after application
In short: as §2

[8] = test system: transplanted rice plant; assay: Test Example 1: effect on crop, application before weed generation in submerged conditions (symbol a); conditions: application herbicide amount 320 g/ha
In short: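 Rice at 2.5 leaf stage transplanted into submerged soil (4 cm depth) sown with three weed species; herbicide applied before weed emergence.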

[9] = test system: Echinochloa oryzacola Vasing.; assay: Test Example 1: herbicidal activity, application before weed generation in submerged conditions (symbol A); conditions: application herbicide amount 320 g/ha
In short: (§5)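 In a flooded pot test with alluvial soil, the emulsion-formulated compound was diluted with water to a predetermined amount and applied to the floodwater immediately on the sowing day. Pots were held in a greenhouse at 25–30 °C for 3 weeks before each weed was rated.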

[10] = test system: rice; assay: Test Example 4: effect on crop by soil treatment (symbol b); conditions: application herbicide amount 320 g/ha
In short: as §4

[11] = test system: Chenopodium album; assay: Test Example 4: herbicidal effect by soil treatment (symbol O); conditions: application herbicide amount 320 g/ha
In short: as §3

[12] = test system: Alopecurus myosuroides; assay: Test Example 5: herbicidal effect by foliage application, plastic box (symbol J); conditions: 320 g/ha, 3 weeks after application
In short: as §2

[13] = test system: Echinochloa crus-galli var. crus-galli; assay: Test Example 5: herbicidal effect by foliage application, plastic box (symbol H); conditions: 320 g/ha, 3 weeks after application
In short: as §2

[14] = test system: Amaranthus retroflexus; assay: Test Example 5: herbicidal effect by foliage application, plastic box (symbol N); conditions: 320 g/ha, 3 weeks after application
In short: as §2

[15] = test system: Monochoria vaginalis; assay: Test Example 1: herbicidal activity, application before weed generation in submerged conditions (symbol C); conditions: application herbicide amount 320 g/ha
In short: as §5

[16] = test system: Lolium multiflorum Lam.; assay: Test Example 5: herbicidal effect by foliage application, plastic box (symbol K); conditions: 320 g/ha, 3 weeks after application
In short: as §2

Row | Structure (SMILES) | c: corn, effect on crop (criteria of Test Example 1) [1] | F: Digitaria ciliaris, herbicidal effect (criteria of Test Example 1) [2] | effect on crop b (directly sowed rice plant), grade 0-5 [3] | Herbicidal effect grade, K: Lolium multiflorum Lam. [4] | b: directly sowed rice plant, effect on crop (criteria of Test Example 1) [5] | Effect on crop grade, d: soybean [6] | M: Abutilon theophrasti, herbicidal effect (criteria of Test Example 1) [7] | Effect grade on crop, a: transplanted rice plant [8] | Herbicidal effect grade, A: Echinochloa oryzacola Vasing. [9] | Effect on crop grade, b: directly sowed rice plant [10] | Herbicidal effect grade, O: Chenopodium album [11] | J: Alopecurus myosuroides, herbicidal effect (criteria of Test Example 1) [12] | H: Echinochloa crus-galli var. crus-galli, herbicidal effect (criteria of Test Example 1) [13] | N: Amaranthus retroflexus, herbicidal effect (criteria of Test Example 1) [14] | Herbicidal effect grade, C: Monochoria vaginalis [15] | K: Lolium multiflorum Lam., herbicidal effect (criteria of Test Example 1) [16]
1 | CON=C(C)CC1CC(OC(=O)N2CCCCC2)=C(c2c(C)cc(C)cc2OC)C1=O (centres unmarked) [6-111] | 5 (Herbicidal ratio of 90% or more (almost completely withered)) | 5 (Herbicidal ratio of 90% or more (almost completely withered)) | 5 (Herbicidal ratio of 90% or more (almost completely withered)) | 5 (Herbicidal ratio of 90% or more (almost completely withered)) | 5 (Herbicidal ratio of 90% or more (almost completely withered)) | 0 (Herbicidal ratio of 5% or lower (almost no effect)) | 2 (Herbicidal ratio of 20% or higher and lower than 40%) | 5 (Herbicidal ratio of 90% or more (almost completely withered)) | 5 (Herbicidal ratio of 90% or more (almost completely withered)) | 1 (Herbicidal ratio of 5% or higher and lower than 20%) | 0 (Herbicidal ratio of 5% or lower (almost no effect)) | 5 (Herbicidal ratio of 90% or more (almost completely withered)) | 5 (Herbicidal ratio of 90% or more (almost completely withered)) | 2 (Herbicidal ratio of 20% or higher and lower than 40%) | 2 (Herbicidal ratio of 20% or higher and lower than 40%) | 5 (Herbicidal ratio of 90% or more (almost completely withered))
2 | CON=C(C)CC1CC(O)=C(c2c(C)cccc2C)C1=O (centres unmarked) [6-112] | 5 (Herbicidal ratio of 90% or more (almost completely withered)) | 5 (Herbicidal ratio of 90% or more (almost completely withered)) | 5 (Herbicidal ratio of 90% or more (almost completely withered)) | 5 (Herbicidal ratio of 90% or more (almost completely withered)) | 5 (Herbicidal ratio of 90% or more (almost completely withered)) | 0 (Herbicidal ratio of 5% or lower (almost no effect)) | 4 (Herbicidal ratio of 70% or higher and lower than 90%) | 4 (Herbicidal ratio of 70% or higher and lower than 90%) | 5 (Herbicidal ratio of 90% or more (almost completely withered)) | 5 (Herbicidal ratio of 90% or more (almost completely withered)) | 0 (Herbicidal ratio of 5% or lower (almost no effect)) | 5 (Herbicidal ratio of 90% or more (almost completely withered)) | 5 (Herbicidal ratio of 90% or more (almost completely withered)) | 1 (Herbicidal ratio of 5% or higher and lower than 20%) | 0 (Herbicidal ratio of 5% or lower (almost no effect)) | 5 (Herbicidal ratio of 90% or more (almost completely withered))
3 | CON=C(C)C(C)C1CC(O)=C(c2c(C)cc(Br)cc2OC)C1=O (centres unmarked) [6-113] | 5 (Herbicidal ratio of 90% or more (almost completely withered)) | 5 (Herbicidal ratio of 90% or more (almost completely withered)) | 5 (Herbicidal ratio of 90% or more (almost completely withered)) | 5 (Herbicidal ratio of 90% or more (almost completely withered)) | 5 (Herbicidal ratio of 90% or more (almost completely withered)) | 0 (Herbicidal ratio of 5% or lower (almost no effect)) | 0 (Herbicidal ratio of 5% or lower (almost no effect)) | 5 (Herbicidal ratio of 90% or more (almost completely withered)) | 4 (Herbicidal ratio of 70% or higher and lower than 90%) | 5 (Herbicidal ratio of 90% or more (almost completely withered)) | 0 (Herbicidal ratio of 5% or lower (almost no effect)) | 5 (Herbicidal ratio of 90% or more (almost completely withered)) | 5 (Herbicidal ratio of 90% or more (almost completely withered)) | 0 (Herbicidal ratio of 5% or lower (almost no effect)) | 0 (Herbicidal ratio of 5% or lower (almost no effect)) | 5 (Herbicidal ratio of 90% or more (almost completely withered))
4 | CC(=O)CC1CC(O)=C(c2c(C)cc(Br)cc2C)C1=O (centres unmarked) [7-002] | 3 (Herbicidal ratio of 40% or higher and lower than 70%) | 5 (Herbicidal ratio of 90% or more (almost completely withered)) | 5 (Herbicidal ratio of 90% or more (almost completely withered)) | 5 (Herbicidal ratio of 90% or more (almost completely withered)) | 5 (Herbicidal ratio of 90% or more (almost completely withered)) | 0 (Herbicidal ratio of 5% or lower (almost no effect)) | 0 (Herbicidal ratio of 5% or lower (almost no effect)) | 2 (Herbicidal ratio of 20% or higher and lower than 40%) | 0 (Herbicidal ratio of 5% or lower (almost no effect)) | 5 (Herbicidal ratio of 90% or more (almost completely withered)) | 0 (Herbicidal ratio of 5% or lower (almost no effect)) | 4 (Herbicidal ratio of 70% or higher and lower than 90%) | 5 (Herbicidal ratio of 90% or more (almost completely withered)) | 0 (Herbicidal ratio of 5% or lower (almost no effect)) | 0 (Herbicidal ratio of 5% or lower (almost no effect)) | 5 (Herbicidal ratio of 90% or more (almost completely withered))
5 | CCc1cc(Br)cc(C)c1C1=C(O)CC(CC(C)=O)C1=O (centres unmarked) [7-003] | 5 (Herbicidal ratio of 90% or more (almost completely withered)) | 5 (Herbicidal ratio of 90% or more (almost completely withered)) | 5 (Herbicidal ratio of 90% or more (almost completely withered)) | 5 (Herbicidal ratio of 90% or more (almost completely withered)) | 5 (Herbicidal ratio of 90% or more (almost completely withered)) | 0 (Herbicidal ratio of 5% or lower (almost no effect)) | 0 (Herbicidal ratio of 5% or lower (almost no effect)) | 0 (Herbicidal ratio of 5% or lower (almost no effect)) | 5 (Herbicidal ratio of 90% or more (almost completely withered)) | 5 (Herbicidal ratio of 90% or more (almost completely withered)) | 0 (Herbicidal ratio of 5% or lower (almost no effect)) | 5 (Herbicidal ratio of 90% or more (almost completely withered)) | 5 (Herbicidal ratio of 90% or more (almost completely withered)) | 0 (Herbicidal ratio of 5% or lower (almost no effect)) | 0 (Herbicidal ratio of 5% or lower (almost no effect)) | 5 (Herbicidal ratio of 90% or more (almost completely withered))

Reference: US11000033B2, “Ketone or oxime compound, and herbicide” (NISSAN CHEMICAL CORPORATION, priority 2014, dated 2021)
